Experimental data reported in PubChem BioAssay AID1996.
In brackets after ≈: the same amount, converted by molar mass.

conditions: buffer; pH 7.4; 200.0 µM

Row | Structure (SMILES) | solubility kinetic
1 | COc1ccc(-c2csc(Nc3ccccn3)n2)cc1OC | 5.5 µg/mL (≈ 17.6 µM)
2 | COc1ccc(OCCC(=O)Nc2ccc(S(N)(=O)=O)cc2)cc1 | 48.1 µg/mL (≈ 137 µM)
3 | CC(CN1CCCC1)OC(=O)Cc1ccc(Cl)cc1.Cl (configuration not stated) | > 47.7 µg/mL
4 | CCCC(=O)Nc1nc(C)c(C(C)=O)s1 | > 33.9 µg/mL
5 | CCCc1cc(=O)[nH]c(SCc2ccc(F)cc2)n1 | 3.2 µg/mL (≈ 11.5 µM)
6 | COC(=O)C(C)Nc1cccc(Br)c1 (configuration not stated) | 21.8 µg/mL (≈ 84.5 µM)
7 | C=CCNC(=S)N1CCOCC1 | > 27.9 µg/mL
8 | O=C(Cc1ccc(F)cc1)NC(Cc1c[nH]c2ccccc12)C(=O)O (configuration not stated) | 46.6 µg/mL (≈ 137 µM)
9 | O=C(CSc1nccc(=O)[nH]1)NC1CCCCCCC1 | > 44.3 µg/mL
10 | C[Si](C)(C)n1ccnc1 | 14.6 µg/mL (≈ 104 µM)
11 | CCOCCCNC(=O)C1CC(=O)N(CCc2ccccc2)C1 (configuration not stated) | 41.7 µg/mL (≈ 131 µM)
12 | Cc1ccc(C(=O)N2CCN(c3nc4ccccc4n3C)CC2)cc1 | > 50.2 µg/mL
13 | O=C(O)C1C2CCC(O2)C1C(=O)Nc1ccc(Br)cc1F (configuration not stated) | > 53.7 µg/mL
14 | O=C(Nc1ccccc1)C1CC(=O)n2c(nc3ccccc32)N1 (configuration not stated) | 0.9 µg/mL (≈ 2.94 µM)
15 | CCN(CC)S(=O)(=O)c1ccc(Cl)nc1 | 34.3 µg/mL (≈ 138 µM)
16 | CN(C)C(=O)c1cc(C(=O)c2ccc(F)cc2C(F)(F)F)c[nH]1 | 12.6 µg/mL (≈ 38.4 µM)
17 | OCc1nc2ccccc2n1Cc1ccc(Cl)cc1 | 28.4 µg/mL (≈ 104 µM)
18 | Cc1cc(SCC(=O)Nc2ccc3[nH]c(=O)[nH]c3c2)nc2ccccc12 | 2.9 µg/mL (≈ 7.96 µM)
19 | C=CCON1C(=O)C(=O)N(OCC=C)[C@H]2CCCC[C@H]21 | > 42 µg/mL
20 | COc1ccc(CNC(=O)c2cc(SC)ccc2Cl)cc1OC | 49.1 µg/mL (≈ 140 µM)
21 | COc1ccc(Nc2nc3c(C)cccn3c(=O)c2C=O)cc1 | < 0.2 µg/mL
22 | CCCn1cnc2scc(-c3ccc(OC)cc3)c2c1=O | 13.9 µg/mL (≈ 46.3 µM)

Row | Structure (SMILES) | solubility kinetic
23 | Cn1ccsc1=NC(=O)c1ccc(OC(F)(F)F)cc1 | 9.3 µg/mL (≈ 30.8 µM)
24 | CCOC(=O)N1CCN(CC(=O)Nc2cc(OC)c(OC)cc2C#N)CC1 | 16.3 µg/mL (≈ 43.3 µM)
25 | O=S(=O)(c1ccc(F)c(F)c1)N1CCN(c2ccccn2)CC1 | 1.5 µg/mL (≈ 4.42 µM)
26 | Nc1cncc(C(=O)O)c1 | > 20.7 µg/mL
27 | O=C1c2ccccc2C(=O)N1c1cc([N+](=O)[O-])ccn1 | 29.2 µg/mL (≈ 108 µM)
28 | COc1ccc(CNC(=O)c2sccc2-c2ccccc2)cc1OC | 33.7 µg/mL (≈ 95.3 µM)
29 | O=C(NC1CCCCC1)c1ccc2[nH]c(=O)c(=O)[nH]c2c1 | > 43.1 µg/mL
30 | O=C(Nc1cc(Cl)ccc1Cl)C1Cc2ccccc2O/C1=N\O (configuration not stated) | 2.8 µg/mL (≈ 7.97 µM)
31 | N/C(=N\OC(=O)Cc1cccs1)c1ccc(Cl)cc1 | 5.8 µg/mL (≈ 19.7 µM)
32 | Cc1ccsc1C(=O)OCC(=O)NC1CCS(=O)(=O)C1 (configuration not stated) | > 47.6 µg/mL
33 | CC1CCCCC1NC(=O)COC(=O)CNC(=O)c1cccc(F)c1 (configuration not stated) | 51.2 µg/mL (≈ 146 µM)
34 | CCc1nc2ccccc2c(C(=O)Nc2cccc(C)c2)c1C | 2.2 µg/mL (≈ 7.23 µM)
35 | O=C(c1cc(Cl)ccc1O)N1CCN(S(=O)(=O)Cc2ccccc2)CC1 | > 59.2 µg/mL
36 | CCN(CC(=O)NC(=O)NC1CCCC1)Cc1ccccc1 | > 45.5 µg/mL
37 | COc1ccc(C)cc1NC(=S)NC(C)c1ccc(OC)c(OC)c1 (configuration not stated) | 13.3 µg/mL (≈ 36.9 µM)
38 | COc1ccccc1NC(=O)N1C[C@@H]2C[C@@H](C1)c1cccc(=O)n1C2 | > 50.9 µg/mL
39 | Cc1cccc(C)c1OCC(=O)NC1CC1 | > 32.9 µg/mL
40 | Cl.NCCc1cnc[nH]1 | > 27.6 µg/mL
41 | Cc1c(C)n(CCCN(C)C)c2ncnc(Nc3ccccc3)c12 | > 48.5 µg/mL
42 | COc1ccc(C(=O)NCCSc2ccccc2C)cc1 | 23.7 µg/mL (≈ 78.6 µM)
43 | Cc1ccc(N2CCN(C(=S)Nc3ccccc3C)CC2)cc1 | 0.6 µg/mL (≈ 1.84 µM)
44 | CC(C)(C)NC(=S)Nc1cccc(C(F)(F)F)c1 | 17.1 µg/mL (≈ 61.9 µM)

Row | Structure (SMILES) | solubility kinetic
45 | CCOc1ccccc1C(=O)NCC(=O)OCC(=O)c1c(N)n(C)c(=O)n(C)c1=O | 4.1 µg/mL (≈ 9.8 µM)
46 | CC1CCN(C(C(=O)O)c2ccccc2)CC1.Cl (configuration not stated) | > 40.5 µg/mL
47 | O=C(c1cc(-c2ccc(F)cc2)nc2ccccc12)N1CCC1 | > 46 µg/mL
48 | NC(=O)Nc1ccc(C(=O)OCC(=O)NC2CCCCC2)cc1 | 37.5 µg/mL (≈ 117 µM)
49 | COc1ccccc1N1CCN(Cc2cnc(-c3ccccc3)[nH]2)CC1 | 15.1 µg/mL (≈ 43.3 µM)
50 | Nc1ncnc(Nc2cccc(F)c2)n1 | 30.6 µg/mL (≈ 149 µM)
51 | CCC(=O)NCc1csc(-c2cccs2)n1 | > 37.9 µg/mL
52 | CCCCn1c(=O)c(C(C)=O)c(O)c2ccccc21 | 26.6 µg/mL (≈ 103 µM)
53 | Cc1nc2ccc(NC(=O)c3cnc(Cl)c(Cl)c3)cc2s1 | 0.3 µg/mL (≈ 0.887 µM)
54 | Cc1cnc(NS(=O)(=O)c2ccccc2)c(Br)c1 | > 49.1 µg/mL
55 | CCOc1ccccc1NC(=O)Cn1c(=O)oc2cc(Cl)ccc21 | 10.5 µg/mL (≈ 30.3 µM)
56 | Cc1cc(C)c(NC(=O)COC(=O)c2ccncc2)c(C)c1 | 35.6 µg/mL (≈ 119 µM)
57 | O=C(Nc1cccc(Cl)c1)Nc1cccc(C(=O)O)c1 | > 43.6 µg/mL
58 | COc1ccc2cc3c(nc2c1)OCC3 | 25.2 µg/mL (≈ 125 µM)
59 | N#Cc1cccc(CS(=O)(=O)c2ccc(Cl)cc2)c1 | 38.2 µg/mL (≈ 131 µM)
60 | Cc1[nH]c2ccccc2c1/C=N/NC(=O)c1ccccc1 | > 41.6 µg/mL
61 | Cc1ccc(-c2cc[n+](Cc3ccccc3)cc2)cc1.[Cl-] | > 44.4 µg/mL
62 | Cc1cnc(C(=O)OCC(=O)c2cccc3ccccc23)cn1 | 36.1 µg/mL (≈ 118 µM)
63 | CN(C(=O)CSc1nc(-c2cccs2)nc2ccccc12)C1CCS(=O)(=O)C1 (configuration not stated) | 2.5 µg/mL (≈ 5.77 µM)
64 | Cc1ccc(CN(C)C2CCN(C)CC2)cc1 | 31.3 µg/mL (≈ 135 µM)
65 | CCOc1ncccc1C(=O)Nc1c(C)n(C)n(-c2ccccc2)c1=O | > 52.9 µg/mL
66 | CCC1Oc2ccccc2N(CC(=O)NC2CCCC2)C1=O (configuration not stated) | 42.2 µg/mL (≈ 140 µM)

Row | Structure (SMILES) | solubility kinetic
67 | Cc1ccc2nc(NC(=O)COC(=O)c3ccccn3)sc2c1 | 32.1 µg/mL (≈ 98.1 µM)
68 | Cc1cc(C)c(NC(=O)COC(=O)C2CCCCC2)c(C)c1 | 5.6 µg/mL (≈ 18.5 µM)
69 | Cc1ccc2[nH]c(C(=O)NCCN3CCCC3)cc2c1.Cl | > 46.2 µg/mL
70 | O=C(CC12CC3CC(CC(Br)(C3)C1)C2)NC1CCCC1 | 36.4 µg/mL (≈ 107 µM)
71 | Cc1ccc(O)c(Nc2ncnc3ccccc23)c1.Cl | 4.5 µg/mL
72 | Cc1ccc(-c2csc3ncnc(SCC(=O)O)c23)cc1 | > 47.5 µg/mL
73 | COc1ccc(NC(=O)c2ccc3ccccc3c2OC)cc1 | < 0.7 µg/mL
74 | Cc1cc(C)cc(OCC(=O)O/N=C(\N)c2cccnc2)c1 | 38.3 µg/mL (≈ 128 µM)
75 | COC(=O)CC1C(=O)NCCN1C(=O)c1ccc([N+](=O)[O-])cc1 (configuration not stated) | > 48.2 µg/mL
76 | Cc1ccc2nc(SCC(=O)Nc3nonc3C)[nH]c2c1 | > 45.5 µg/mL
77 | CC1CC(C)CN(C(=O)C(C)N(C)CC(=O)Nc2ccccc2Cl)C1 (configuration not stated) | > 54.9 µg/mL
78 | c1ccc(-c2nnc(-c3ccccn3)c(-c3ccccn3)n2)nc1 | > 46.8 µg/mL
79 | CN(CCC#N)S(=O)(=O)c1cc2c3c(c1)CCN3C(=O)CC2 | > 47.9 µg/mL
80 | COc1cc2c(cc1OC)C(c1c(Cl)cccc1Cl)NC(=O)C2 (configuration not stated) | > 52.8 µg/mL
81 | COc1ccc(CNC(=O)c2cc3ccccc3o2)cc1OC | > 46.7 µg/mL
82 | C#CC[N+]1(C)C2CCC1CC(O)C2.[Br-] (configuration not stated) | 33.7 µg/mL
83 | O=S(=O)(Nc1ccc(Cl)cc1)c1cccc2cccnc12 | 5 µg/mL (≈ 15.7 µM)
84 | CCC(C)NC(=O)c1cc2cc3ccc(OC)cc3nc2o1 (configuration not stated) | 30.4 µg/mL (≈ 102 µM)
85 | COc1cc(CNC(=O)c2cnc(C)cn2)cc(OC)c1 | > 43.1 µg/mL
86 | O=C(OCC(=O)c1c[nH]c2ccccc12)c1cncc(Br)c1 | 7.5 µg/mL (≈ 20.9 µM)
87 | CCOc1ccc(CO/N=C/c2c(C)[nH]c(=O)[nH]c2=O)cc1 | 5.8 µg/mL (≈ 19.1 µM)
